According to patent US20210386733A1, “LYSINE-SPECIFIC HISTONE DEMETHYLASE INHIBITORS FOR THE TREATMENT OF MYELOPROLIFERATIVE NEOPLASMS” (Imago Biosciences, Inc., priority 2019, published 2021):
Counter-ions that a name gives are not always drawn.

Experiments:
patients with MF = assay: Safety / adverse events in the clinical studies (31 subjects); assay type: in vivo
Description: Safety. […] Four SAEs attributed to Compound 1 (all Grade 3), including painful splenomegaly, headache, nausea and vomiting, and heart failure. There were 139 AEs of all grades attributed to Compound 1. The most common AEs across the 31 subjects from both of the above studies were thrombocytopenia (11 subjects, 35%), anemia (3 subjects, 10%) and nausea (1, 3%). The most common grade 3/4 AEs attributed to Compound 1 were Anemia (6 subjects, 19%) and neutropenia (3 subjects, 10%).
Management of Study Toxicities. Adverse event intensity will be evaluated using the National Cancer Institute (NCI) Common Terminology Criteria for Adverse Events (CTCAE) version 4.03, published 14 Jun. 2010.

[1] = system: patients with myelofibrosis; assay: Phase 2B clinical trial of Compound 1 in myelofibrosis (Example 2); assay type: in vivo, human
Protocol: A multi-center, open label, dose-range finding study to assess the safety, optimally effective dosing rules, steady-state pharmacokinetics and pharmacodynamics of Compound 1 orally once daily in patients with myelofibrosis was conducted in a Phase 1/2a study. • Primary objectives were to evaluate, in MF patients the effect of Compound 1 on: Safety and tolerability • Pharmacokinetics (Phase 1/2a only) • Reduction in spleen volume
This study initiated as a Phase 1/2a study assessing the safety of the starting dose, an 85 day duration of treatment, and the pharmacokinetic and pharmacodynamic effects of Compound 1, with transition to a Phase 2b study incorporating changes supported by the earlier pharmacokinetic and pharmacodynamic studies and safety assessments. This study consisted of two treatment periods: the Initial Treatment Period (ITP), followed by the Additional Treatment Period (ATP). Patients commenced enrolment in the Phase 2b portion of the study, in which the ITP has been extended such that patients were treated daily for 169 days. The ATP, also extended, offered treatment to qualifying patients for an additional 169 days.
Initial Treatment Period. During the ITP, patients initially returned for study assessments twice weekly for the first week (ITP Days 0, 3 and 7); post-dosing of 3 patients at the new Ds, the DSMC convened to assess the necessity of the Day 3 visit. Patients returned weekly for the next 7 weeks (ITP Days 14, 21, 28, 35, 42, 49 and 56), at least bi-weekly for 8 weeks (ITP Days 70, 84, 98 and 112) and then monthly for 8 weeks (ITP Days 140 and 168). It was anticipated that by Week 8 (Day 56) patients will have achieved a stable dose, with weekly titrations no longer necessary. For the exceptional patient whose dose had not stabilized, weekly visits continued at the PI's discretion (note: bi-weekly visits may also continue post Day 112). On Days 84 and 168, patients underwent abdominal magnetic resonance imaging (MRI), or computerized tomography (CT) if the patient was not a candidate for MRI. On Day 168, bone marrow sampling was also required. Prior to or at the Day 168 visit, but ideally at the Day 140 visit for logistical purposes, a ‘qualification’ assessment was made to determine whether the patient is deriving clinical benefit (defined as not meeting progressive disease criteria and safely tolerating Compound 1; this definition applies throughout document and will not be repeated with each reference to clinical benefit). Such patients qualified for entry into the ATP, a transition which was anticipated to occur without interruption in dosing. Patients not deriving clinical benefit, or who achieve complete response (CR), partial response (PR) or clinical improvement (CI) and subsequently relapse the equivalent of treatment failures, discontinued Compound 1 and undergo End of Treatment (EoT), pre-End of Study (pre-EoS) and End of Study (EoS) visits.
Initial Treatment Period (ITP). Treatment began on Day 0 at the Ds of 0.5 mg/kg QD for all patients entering the Phase 2b portion of the study. Dose-adjustments could be made at each clinic visit (with the exception of Day 3), with dose-titration, either upward or downward, contingent on the comparison of hematology values from the prior visit, as dictated by the rules below. The Dpi was anticipated to be ≤1.2 mg/kg QD; however, this was not the upper limit for titration purposes as the dose needed to achieve a therapeutic effect will vary among patients and may change over time. The platelet titration target expected to be associated with a clinically significant therapeutic effect was a platelet count of ≥50,000 to ≤75,000/μL (50-75×10^9/L). Titration and re-challenge rules based on evaluation of platelet, absolute neutrophil (ANC) and hemoglobin (Hgb) counts are noted below. […]

[2] = Phase 2b patients at Week 12, n=14

For `CN1CCN(C(=O)[C@H](CCCN[C@@H]2C[C@H]2c2ccc(F)cc2)NC(=O)c2ccc(-n3ccnn3)cc2)CC1` [Compound 1, N-[(2S)-5-{[(1R, 2S)-2-(4-fluorophenyl)cyclopropyl]amino}-1-(4-methylpiperazin-1-yl)-1-oxopentan-2-yl]-4-(1H-1,2,3-triazol-1-yl)benzamide, bis-tosylate salt], the “subjects with grade 3/4 Anemia attributed to Compound 1” value (patients with MF; 31 subjects) was 19%, the “subjects with grade 3/4 neutropenia attributed to Compound 1” value (patients with MF; 31 subjects) was 10% and the “subjects with anemia (most common AEs)” value (patients with MF; 31 subjects from both studies) was 10%. For the same compound, the “subjects with nausea (most common AEs)” value (patients with MF; 31 subjects from both studies) was 3%, the “subjects with thrombocytopenia (most common AEs)” value (patients with MF; 31 subjects from both studies) was 35% and the tolerability (patients with MF; MF patients) was “well tolerated”. The “SAEs attributed to Compound 1” value (patients with MF; all Grade 3: painful splenomegaly, headache, nausea and vomiting, heart failure) was “Four”, the “AEs of all grades attributed to Compound 1” value (patients with MF; human, in vivo) was 139 and the “deaths or dose-limiting toxicities” value (patients with MF; throughout the course of the study) was “no deaths or dose-limiting toxicities”. For the same compound, the “patients with a decrease in spleen volume” value [1, 2] was 86%, the “patients with a spleen volume reduction of ≥20%” value [1, 2] was 29% and the “patients with a spleen volume reduction of ≥35%” value [1, 2] was 14%. The “median change in spleen volume to Wk 12” value ([1]; Phase 2b patients, n=14) was −15%, the “patients with a decrease in symptom score” value ([1]; all patients at Week 12, n=32) was 78% and the “patients with a reduction in symptom score of ≥50%” value ([1]; all patients at Week 12, n=32) was 25%.
